In patent US20100125059A1, “1-BIARYLAZETIDINONE DERIVATIVE” (Teijin Pharma Limited, priority 2007, published 2010):
Where two headings read alike, the source gives them in different places.

Tests used:
[1] = test system: hamsters fed a high cholesterol diet; assay: Measurement of lipid lowering effect in hamsters fed a high cholesterol diet; format: in vivo, Male Golden Syrian hamsters; conditions: for inhibition in vivo at 0.1 mg/kg / inhibition in vivo at 0.01 mg/kg: Mesocricetus auratus, po, 168 h, gavage once daily, 7 days; for a serum TC lowering effect at a dose of 0.1 mg/kg: Table 22, suppression rate of an increase in serum TC concentration
Procedure, shortened: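 Male Golden Syrian hamsters (6/group) on 0.5% cholesterol diet, dosed by gavage once daily in corn oil at 0.01 to 10 mg/kg; serum and liver sampled 4 h after last dose. TC, TG and LDL-C measured enzymatically; effects expressed as % suppression versus control and normal-diet groups.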

[2] = test system: Caco-2 cells; assay: Cholesterol absorption inhibition assay (in vitro), [14C] cholesterol mixed micelles; format: cell-based; conditions: Homo sapiens, 24 hours, read-out: cholesterol absorption inhibitory activity; for inhibition at 10 µM: concentration of 10 μM; for inhibition at 12.5 µM: concentration of 12.5 μM
Method: This assay measures cholesterol absorption inhibitory activity by adding mixed micelles containing [^14C] cholesterol to cells and measuring cholesterol taken in the cells as oleic acid cholesteryl ester. The assay is conducted after Caco-2 cells are seeded on multi-well plates and cultured (culture medium: DMEM containing 10% fetal bovine serum, 1% non-essential amino acids, 1% penicillin, and 1% streptomycin) for 2 weeks. To each well, the micelle solution (in an amount required to provide the following final concentrations: 600 μM of sodium oleate, 50 μM of phosphatidyl choline, 5 mM of sodium taurocholate, 2.5 μM of cholesterol, and 2.5 μM of [^14C] cholesterol) and a test compound solution (in an amount required to provide the final concentration of 0.5 to 25 μM) or a solvent as a control are added, and incubation is started at 37° C. 24 hours later, the culture medium is removed, and the lipid component is extracted with hexane/2-propanol (3:2, v/v) and applied onto thin-layer silica gel plates. After drying, each plate is eluted with a mixture of hexane, diethyl ether, and acetic acid in a ratio of 83:16:1. The plates are photoexposed on imaging plates and analyzed using BAS-2500 (FUJIFILM). The amounts of light exposure of the areas corresponding to the cholesteryl ester are calculated. Background is measured using a blank space of the plate. Inhibition rates are calculated using values obtained by subtracting the background values from both values of the control and the test sample, respectively, in accordance with the following equation. A test value is calculated as a percentage (%) with respect to the control.
In the Equation 1, A is the control group, BG is a background, and B is the test compound.
The following results were obtained from the measurement by this method on cholesterol absorption inhibitory activity of the compounds of the present invention. The following results were obtained by the evaluation using concentrations of 10 μM and/or 12.5 μM.

[3] = read-out: serum TG lowering effect (serum TG lowering rate)
[4] = read-out: liver TC lowering effect (suppression rate of an increase in liver TC concentration)
[5] = read-out: serum LDL-C lowering effect (suppression rate of an increase in serum LDL-C concentration)
[6] = read-out: serum TC lowering effect (suppression rate of an increase in serum TC concentration)

Row | SMILES | inhibition in vivo at 0.1 mg/kg [1, 3] [%] | inhibition at 10 µM [2] [%] | inhibition in vivo at 0.01 mg/kg [1, 6] [%] | inhibition at 12.5 µM [2] [%] | further results
1 | O=C1[C@H](SC[C@H](O)c2ccc(F)cc2)[C@@H](c2ccc(O)cc2)N1c1ccc(-c2ncc(F)cc2F)cc1 [Example 34, (3R,4R)-3-[(2R)-2-(4-fluorophenyl)-2-hydroxyethylthio]-1-[4-(3,5-difluoropyridin-2-yl)phenyl]-4-(4-hydroxyphenyl)azetidin-2-one] | ≥ 20 | ≥ 50 | – | – | –
2 | O=C1[C@H](SC[C@H](O)c2ccc(Cl)cc2)[C@@H](c2ccc(O)cc2)N1c1ccc(-c2cncc(Cl)c2)cc1 [Example 87, (3R,4R)-3-[(2R)-2-(4-chlorophenyl)-2-hydroxyethylthio]-1-[4-(5-chloropyridin-3-yl)phenyl]-4-(4-hydroxyphenyl)azetidin-2-one] | – | – | ≥ 30 | ≥ 60 | inhibition in vivo at 0.01 mg/kg [1, 4]: ≥ 30%; inhibition in vivo at 0.01 mg/kg [1, 5]: ≥ 30%
3 | COc1cc(O)ccc1[C@@H]1[C@@H](SC[C@H](O)c2ccc(F)cc2)C(=O)N1c1ccc(-c2cccnc2)cc1 [Example 24, (3R,4R)-3-[(2R)-2-(4-fluorophenyl)-2-hydroxyethylthio]-4-(4-hydroxy-2-methoxyphenyl)-1-[4-(pyridin-3-yl)phenyl]azetidin-2-one] | – | ≥ 50 | – | – | inhibition in vivo at 0.1 mg/kg [1, 4]: ≥ 50%; inhibition in vivo at 0.1 mg/kg [1, 6]: ≥ 50%
4 | O=C1[C@H](SC[C@H](O)c2ccc(Cl)cc2)[C@@H](c2ccc(O)cc2)N1c1ccc(-c2ccc(Cl)nc2)cc1 [Example 94, (3R,4R)-3-[(2R)-2-(4-chlorophenyl)-2-hydroxyethylthio]-1-[4-(6-chloropyridin-3-yl)phenyl]-4-(4-hydroxyphenyl)azetidin-2-one] | – | – | – | ≥ 60 | inhibition in vivo at 0.1 mg/kg [1, 4]: ≥ 50%
5 | O=C1[C@H](SC[C@H](O)c2ccc(F)cc2)[C@@H](c2ccc(O)cc2)N1c1ccc(-c2cccnc2Cl)cc1 [Example 15, (3R,4R)-3-[(2R)-2-(4-fluorophenyl)-2-hydroxyethylthio]-1-[4-(2-chloropyridin-3-yl)phenyl]-4-(4-hydroxyphenyl)azetidin-2-one] | ≥ 20 | ≥ 50 | – | – | inhibition in vivo at 0.1 mg/kg [1, 5]: ≥ 50%
6 | COc1ccc(-c2ccc(N3C(=O)[C@H](SC[C@H](O)c4ccc(F)cc4)[C@H]3c3ccc(O)cc3)cc2)cn1 [Example 14, (3R,4R)-3-[(2R)-2-(4-fluorophenyl)-2-hydroxyethylthio]-4-(4-hydroxyphenyl)-1-[4-(6-methoxypyridin-3-yl)phenyl]azetidin-2-one] | ≥ 20 | ≥ 50 | – | – | –
7 | O=C1[C@H](SCCc2ccc(F)cc2)[C@@H](c2ccc(O)cc2)N1c1ccc(-c2cccnc2)cc1 [Example 5, (3R,4R)-3-[2-(4-fluorophenyl)ethylthio]-4-(4-hydroxyphenyl)-1-[4-(pyridin-3-yl)phenyl]azetidin-2-one] | ≥ 20 | ≥ 50 | – | ≥ 60 | –
8 | CC(=O)c1cncc(-c2ccc(N3C(=O)[C@H](SC[C@H](O)c4ccc(F)cc4)[C@H]3c3ccc(O)cc3)cc2)c1 [Example 48, (3R,4R)-3-[(2R)-2-(4-fluorophenyl)-2-hydroxyethylthio]-1-[4-(5-acetylpyridin-3-yl)phenyl]-4-(4-hydroxyphenyl)azetidin-2-one] | ≥ 20 | ≥ 50 | – | ≥ 60 | –
9 | O=C1[C@H](SC[C@H](O)c2ccc(F)cc2)[C@@H](c2ccc(O)cc2Cl)N1c1ccc(-c2cccnc2)cc1 [Example 59, (3R,4R)-3-[(2R)-2-(4-fluorophenyl)-2-hydroxyethylthio]-4-(2-chloro-4-hydroxyphenyl)-1-[4-(pyridin-3-yl)phenyl]azetidin-2-one] | ≥ 20 | – | ≥ 30 | ≥ 60 | inhibition in vivo at 0.1 mg/kg [1, 4]: ≥ 50%
10 | O=C1[C@H](SC[C@H](O)c2ccc(F)cc2)[C@@H](c2ccc(O)cc2)N1c1ccc(-c2cncc(C(F)(F)F)c2)cc1 [Example 51, (3R,4R)-3-[(2R)-2-(4-fluorophenyl)-2-hydroxyethylthio]-4-(4-hydroxyphenyl)-1-[4-(5-trifluoromethylpyridin-3-yl)phenyl]azetidin-2-one] | ≥ 20 | ≥ 50 | ≥ 30 | – | a serum TC lowering effect at a dose of 0.1 mg/kg [1]: 104%
11 | COc1ccncc1-c1ccc(N2C(=O)[C@H](SC[C@H](O)c3ccc(Cl)cc3)[C@H]2c2ccc(O)cc2)cc1 [Example 61, (3R,4R)-3-[(2R)-2-(4-chlorophenyl)-2-hydroxyethylthio]-4-(4-hydroxyphenyl)-1-[4-(4-methoxypyridin-3-yl)phenyl]azetidin-2-one] | – | – | – | ≥ 60 | inhibition in vivo at 0.1 mg/kg [1, 5]: ≥ 50%
12 | O=C1[C@H](SC[C@H](O)c2ccc3sccc3c2)[C@@H](c2ccc(O)cc2)N1c1ccc(-c2cccnc2)cc1 [Example 83, (3R,4R)-3-((2R)-2-benzo[b]thiophen-5-yl-2-hydroxyethylthio)-4-(4-hydroxyphenyl)-1-[4-(pyridin-3-yl)phenyl]azetidin-2-one] | – | – | – | ≥ 60 | inhibition in vivo at 0.1 mg/kg [1, 5]: ≥ 50%; inhibition in vivo at 0.1 mg/kg [1, 6]: ≥ 50%
13 | COc1ncccc1-c1ccc(N2C(=O)[C@H](SC[C@H](O)c3ccc(F)cc3)[C@H]2c2ccc(O)cc2)cc1 [Example 6, (3R,4R)-3-[(2R)-2-(4-fluorophenyl)-2-hydroxyethylthio]-4-(4-hydroxyphenyl)-1-[4-(2-methoxypyridin-3-yl)phenyl]azetidin-2-one] | ≥ 20 | – | – | ≥ 60 | inhibition in vivo at 0.1 mg/kg [1, 6]: ≥ 50%
14 | O=C1[C@H](SC[C@H](O)c2ccc3occc3c2)[C@@H](c2ccc(O)cc2)N1c1ccc(-c2cccnc2)cc1 [Example 31, (3R,4R)-3-((2R)-2-benzo[b]furan-5-yl-2-hydroxyethylthio)-4-(4-hydroxyphenyl)-1-[4-(pyridin-3-yl)phenyl]azetidin-2-one] | ≥ 20 | ≥ 50 | ≥ 30 | ≥ 60 | –
15 | O=C1[C@H](SC[C@H](O)c2ccc(F)cc2)[C@@H](c2ccc(O)cc2)N1c1ccc(-c2cncc(F)c2)cc1 [Example 55, (3R,4R)-3-[(2R)-2-(4-fluorophenyl)-2-hydroxyethylthio]-1-[4-(5-fluoropyridin-3-yl)phenyl]-4-(4-hydroxyphenyl)azetidin-2-one] | ≥ 20 | ≥ 50 | ≥ 30 | – | inhibition in vivo at 0.01 mg/kg [1, 4]: ≥ 30%; inhibition in vivo at 0.01 mg/kg [1, 5]: ≥ 30%; a serum TC lowering effect at a dose of 0.1 mg/kg [1]: 130%
16 | COc1ccc(-c2ccc(N3C(=O)[C@H](SC[C@H](O)c4ccc(F)cc4)[C@H]3c3ccc(O)cc3)cc2)c(OC)n1 [Example 7, (3R,4R)-3-[(2R)-2-(4-fluorophenyl)-2-hydroxyethylthio]-1-[4-(2,6-dimethoxypyridin-3-yl)phenyl]-4-(4-hydroxyphenyl)azetidin-2-one] | ≥ 20 | ≥ 50 | – | – | –
17 | Cc1cncc(-c2ccc(N3C(=O)[C@H](SC[C@H](O)c4ccc(Cl)cc4)[C@H]3c3ccc(O)cc3)cc2)c1 [Example 85, (3R,4R)-3-[(2R)-2-(4-chlorophenyl)-2-hydroxyethylthio]-4-(4-hydroxyphenyl)-1-[4-(5-methylpyridin-3-yl)phenyl]azetidin-2-one] | – | – | ≥ 30 | ≥ 60 | inhibition in vivo at 0.01 mg/kg [1, 5]: ≥ 30%
18 | Cc1ccncc1-c1ccc(N2C(=O)[C@H](SC[C@H](O)c3ccc(F)cc3)[C@H]2c2ccc(O)cc2)cc1 [Example 8, (3R,4R)-3-[(2R)-2-(4-fluorophenyl)-2-hydroxyethylthio]-4-(4-hydroxyphenyl)-1-[4-(4-methylpyridin-3-yl)phenyl]azetidin-2-one] | ≥ 20 | ≥ 50 | – | – | –
